Measurements from ChEMBL document CHEMBL4145548, “Pyrimidine-chloroquinoline hybrids: Synthesis and antiplasmodial activity” (Eur J Med Chem, 2018).
≈ marks a conversion by molar mass, not a printed value. Calls of active or inactive are those of the source. The rule behind the calls is not given here.

Experiments:
Vero = experiment: Cytotoxicity against African green monkey Vero cells assessed as reduction in cell viability by MTT assay; format: cell-based; details: Chlorocebus sabaeus
[1] = Solubility in n-octanol at pH 7.4 after 24 hrs by HPLC analysis; format: physicochemical
[2] = n-octanol-phosphate buffer distribution coefficient, log D of the compound at pH 7.4 after 1 hr by HPLC method; format: physicochemical
[3] = Aqueous solubility in pH 7.4 PBS buffer after 24 hrs by HPLC analysis; format: physicochemical
Plasmodium falciparum [4] = experiment: microbe, parasite or virus in culture; details: NF54
Description: Antiplasmodial activity against chloroquine-sensitive Plasmodium falciparum NF54 by LDH release assay

Plasmodium falciparum [5] = experiment: Potency index, ratio of chloroquine IC50 to compound IC50 for antiplasmodial activity against chloroquine-resistant Plasmodium falciparum Dd2; format: functional
in vitro = details: monkey, Vero cells
Description: Selectivity index, ratio of IC50 for African green monkey Vero cells to IC50 for chloroquine-sensitive Plasmodium falciparum NF54

Plasmodium falciparum [6] = experiment: microbe, parasite or virus in culture; details: Dd2
Description: Antiplasmodial activity against chloroquine-resistant Plasmodium falciparum Dd2 by LDH release assay

Calf thymus DNA [7] = experiment: Binding affinity to calf thymus DNA assessed as change in melting temperature at DNA to compound ratio of 5:1; format: nucleic-acid assay; details: Bos taurus
Heme [8] = experiment: Binding affinity to monomeric heme by 1H NMR method
Heme [9] = experiment: Binding affinity to monomeric heme assessed as decrease in soret band intensity up to 40 uM at pH 5.6 to 7.4 by titration-based UV-vis spectrophotometric analysis
DNA [10] = experiment: Binding affinity to Escherichia coli pUC18 DNA by UV-visible absorption spectral analysis; format: nucleic-acid assay
Calf thymus DNA [11] = experiment: Binding affinity to calf thymus DNA at 66 uM by UV-visible absorption spectral analysis; format: nucleic-acid assay; details: Bos taurus
DNA [12] = experiment: Binding affinity to Escherichia coli pUC18 DNA at 17.1 uM by fluorimetry analysis; format: nucleic-acid assay
Heme [13] = experiment: Binding affinity to monomeric heme at 5 umol by HRMS mass spectrum analysis
mu-oxodimeric heme [14] = experiment: Binding affinity to mu-oxodimeric heme assessed as decrease in soret band intensity up to 26.7 uM at pH 5.8 by titration-based UV-vis spectrophotometric analysis
Heme [15] = experiment: Binding affinity to monomeric heme at pH 5.6 by titration-based UV-vis spectrophotometric analysis
Calf thymus DNA [16] = experiment: Binding affinity to calf thymus DNA assessed as association constant by Benesi-Hildebrand equation analysis; format: nucleic-acid assay; details: Bos taurus
Heme [17] = experiment: Binding affinity to monomeric heme at pH 7.4 by titration-based UV-vis spectrophotometric analysis
Calf thymus DNA [18] = experiment: Binding affinity to calf thymus DNA by UV-visible absorption spectral analysis; format: nucleic-acid assay; details: Bos taurus
unidentified = experiment: Inhibition of acetate buffer-initiated beta-hematin polymerization at 1.2 equiv measured after 1 hr by FT-IR spectroscopic method
mu-oxodimeric heme [19] = experiment: Binding affinity to mu-oxodimeric heme at pH 5.8 by titration-based UV-vis spectrophotometric analysis
Calf thymus DNA [20] = experiment: Binding affinity to calf thymus DNA at 17.1 uM by fluorimetry analysis; format: nucleic-acid assay; details: Bos taurus

| SMILES | IC50 (Vero) [nM] | solubility at 24 h [1] [µM] | logD at 1 h [2] | solubility at 24 h [3] [µM] | IC50 (Plasmodium falciparum [4]) [nM] | Ratio IC50 (Plasmodium falciparum [5]) | further results |
| --- | --- | --- | --- | --- | --- | --- | --- |
| CC[C@H]1CN2CCc3cc(OC)c(OC)cc3[C@@H]2C[C@@H]1C[C@H]1NCCc2cc(OC)c(OC)cc21 [EMETINE] | 176 |  |  |  |  |  |  |
| COC(=O)c1c(C)nc(OCc2cn(-c3ccnc4cc(Cl)ccc34)nn2)nc1-c1ccccc1 |  | 16.3 (≈ 7.96 µg/mL) | 0.69 | 3.31 (≈ 1.61 µg/mL) | 15800 |  |  |
| Clc1ccc2c(NCCCNc3nccc(N4CCOCC4)n3)ccnc2c1 |  |  |  |  |  | 3.2 |  |
| Clc1ccc2c(NCCCCCCCCCCCCNc3nccc(Cl)n3)ccnc2c1 |  |  |  |  |  | 3.2 |  |
| Clc1ccc2c(NCCCCCCCCNc3ccnc(Cl)n3)ccnc2c1 |  |  |  |  |  | 3.2 |  |
| Clc1ccc2c(NCCCCCCCCNc3nccc(Cl)n3)ccnc2c1 |  |  |  |  |  | 3.2 |  |
| Clc1ccc2c(NCCCCCCCNc3nccc(Cl)n3)ccnc2c1 |  |  |  |  |  | 3.2 |  |
| Clc1ccc2c(NCCCNc3nccc(N4CCCCC4)n3)ccnc2c1 |  |  |  |  |  | 3.2 |  |
| COC(=O)c1c(C)nc(OCc2cn(CCCNc3ccnc4cc(Cl)ccc34)nn2)nc1-c1ccccc1 | 156000 | 34.2 (≈ 18.6 µg/mL) | 0.78 | 5.64 (≈ 3.07 µg/mL) | 1010 |  | selectivity ratio (in vitro): 154; IC50 (Plasmodium falciparum [6]): 1650 nM |
| CCOC(=O)c1c(C)nc(OCc2cn(CCCNc3ccnc4cc(Cl)ccc34)nn2)nc1C | > 201000 | 21.2 (≈ 10.5 µg/mL) | 0.42 | 8.01 (≈ 3.97 µg/mL) | 700 |  | selectivity ratio (in vitro): > 287; IC50 (Plasmodium falciparum [6]): 1110 nM |
| Cc1nc(OCc2cn(-c3ccnc4cc(Cl)ccc34)nn2)nc(-c2ccccc2[N+](=O)[O-])c1C(=O)OC(C)C |  | 37.4 (≈ 20.9 µg/mL) | 1.1 | 2.93 (≈ 1.64 µg/mL) | 16100 |  |  |
| Clc1ccc2c(NCCCNc3nccc(N4CCCC4)n3)ccnc2c1 |  |  |  |  |  | 3.2 |  |
| Clc1ccc2c(NCCCCCCCCCCNc3nccc(Cl)n3)ccnc2c1 |  |  |  |  |  | 3.2 |  |
| Clc1ccc2c(NCCCCNc3nccc(Cl)n3)ccnc2c1 |  |  |  |  |  | 3.2 |  |
| Cc1nc(OCc2cn(CCCNc3ccnc4cc(Cl)ccc34)nn2)nc(-c2ccccc2[N+](=O)[O-])c1C(=O)OC(C)C | 23400 | 12.1 (≈ 7.49 µg/mL) | 1.31 | 0.58 (≈ 0.358 µg/mL) | 600 |  | selectivity ratio (in vitro): 38.9; IC50 (Plasmodium falciparum [6]): 860 nM |
| Clc1ccc2c(NCCNc3nccc(Cl)n3)ccnc2c1 |  |  |  |  |  | 3.2 |  |
| CCN(CC)CCCC(C)Nc1ccnc2cc(Cl)ccc12 (stereo not given) |  |  |  |  |  |  | ΔTm (Calf thymus DNA [7]): 4 °C |
| CCOC(=O)c1c(C)nc(OCc2cn(-c3ccnc4cc(Cl)ccc34)nn2)nc1-c1ccccc1 |  | 66.2 (≈ 33.2 µg/mL) | 1.08 | 5.47 (≈ 2.74 µg/mL) | 12200 |  |  |
| CCOC(=O)c1c(C)nc(OCc2cn(CCCNc3ccnc4cc(Cl)ccc34)nn2)nc1-c1ccccc1 | 153000 | 48.3 (≈ 27 µg/mL) | 1.19 | 3.11 (≈ 1.74 µg/mL) | 890 |  | selectivity ratio (in vitro): 172; IC50 (Plasmodium falciparum [6]): 1370 nM |

| SMILES | IC50 (Vero) [nM] | solubility at 24 h [1] [µM] | logD at 1 h [2] | solubility at 24 h [3] [µM] | IC50 (Plasmodium falciparum [4]) [nM] | Ratio IC50 (Plasmodium falciparum [5]) | further results |
| --- | --- | --- | --- | --- | --- | --- | --- |
| COC(=O)c1c(C)nc(OCc2cn(CCNc3ccnc4cc(Cl)ccc34)nn2)nc1-c1ccccc1 |  | 44.7 (≈ 23.7 µg/mL) | 0.58 | 11.3 (≈ 5.99 µg/mL) | 10400 |  |  |
| Cc1nccc(NCCNc2ccnc3cc(Cl)ccc23)n1 |  |  |  |  |  | 3.2 |  |
| Cc1nc(OCc2cn(CCNc3ccnc4cc(Cl)ccc34)nn2)nc(-c2ccc([N+](=O)[O-])cc2)c1C(=O)OC(C)C | 150000 | 54.4 (≈ 32.8 µg/mL) | 0.88 | 7.03 (≈ 4.24 µg/mL) | 180 |  | selectivity ratio (in vitro): 833; IC50 (Plasmodium falciparum [6]): 990 nM |
| CCOC(=O)c1c(C)nc(OCc2cn(-c3ccnc4cc(Cl)ccc34)nn2)nc1C |  | 17.8 (≈ 7.8 µg/mL) | 0.39 | 7.18 (≈ 3.15 µg/mL) | 84200 |  |  |
| Cc1nc(OCc2cn(-c3ccnc4cc(Cl)ccc34)nn2)nc(-c2ccccc2)c1C(=O)OC(C)C |  | 52.5 (≈ 27 µg/mL) | 1.46 | 1.78 (≈ 0.917 µg/mL) | 14000 |  |  |
| Cc1nc(OCc2cn(-c3ccnc4cc(Cl)ccc34)nn2)nc(-c2ccc([N+](=O)[O-])cc2)c1C(=O)OC(C)C |  | 60.5 (≈ 33.9 µg/mL) | 1.12 | 4.54 (≈ 2.54 µg/mL) | 7860 |  |  |
| Clc1ccc2c(NCCCNc3ccnc(N4CCCCC4)n3)ccnc2c1 |  |  |  |  |  | 3.2 |  |
| Cc1nc(OCc2cn(CCCNc3ccnc4cc(Cl)ccc34)nn2)nc(-c2ccc([N+](=O)[O-])cc2)c1C(=O)OC(C)C | 15200 | 14.9 (≈ 9.18 µg/mL) | 1.43 | 0.55 (≈ 0.339 µg/mL) | 48 |  | selectivity ratio (in vitro): 318; Activity (Heme [8]): Active; Activity (Heme [9]): Active; log K (DNA [10]): 3.92; Activity (Calf thymus DNA [11]): Active; Activity (DNA [12]): Active; Activity (Heme [13]): Active; ΔTm (Calf thymus DNA [7]): 2.5 °C; Activity (mu-oxodimeric heme [14]): Active; log K (Heme [15]): 4.27; log K (Calf thymus DNA [16]): 2.29; log K (Heme [17]): 4.68; log K (Calf thymus DNA [18]): 3.74; IC50 (Plasmodium falciparum [6]): 4590 nM; inhibition (unidentified): Active; log K (mu-oxodimeric heme [19]): 5.43; Activity (Calf thymus DNA [20]): Active |
| Cc1nc(OCc2cn(CCNc3ccnc4cc(Cl)ccc34)nn2)nc(-c2ccccc2[N+](=O)[O-])c1C(=O)OC(C)C | 145000 | 16.7 (≈ 10.1 µg/mL) | 0.86 | 2.3 (≈ 1.39 µg/mL) | 530 |  | selectivity ratio (in vitro): 274; IC50 (Plasmodium falciparum [6]): 1080 nM |
| Clc1ccnc(N2CCOCC2)n1 |  |  |  |  |  | 3.2 |  |
| Clc1ccc2c(NCCCOc3nccc(Cl)n3)ccnc2c1 |  |  |  |  |  | 3.2 |  |
| Cc1nc(OCc2cn(CCCNc3ccnc4cc(Cl)ccc34)nn2)nc(-c2ccccc2)c1C(=O)OC(C)C | 28500 | 63.5 (≈ 36.3 µg/mL) | 1.72 | 1.21 (≈ 0.692 µg/mL) | 330 |  | selectivity ratio (in vitro): 86.4; IC50 (Plasmodium falciparum [6]): 610 nM |
| Clc1ccc2c(NCCCNc3nccc(N4CCNCC4)n3)ccnc2c1 |  |  |  |  |  | 3.2 |  |
| Clc1ccc2c(NCCCNc3ccnc(N4CCOCC4)n3)ccnc2c1 |  |  |  |  |  | 3.2 |  |
| CCOC(=O)c1c(C)nc(OCc2cn(CCNc3ccnc4cc(Cl)ccc34)nn2)nc1-c1ccccc1 | 149000 | 21.7 (≈ 11.8 µg/mL) | 0.81 | 3.3 (≈ 1.8 µg/mL) | 1490 |  | selectivity ratio (in vitro): 100; IC50 (Plasmodium falciparum [6]): 2520 nM |
| CCOC(=O)c1c(C)nc(OCc2cn(CCNc3ccnc4cc(Cl)ccc34)nn2)nc1C | > 207000 | 35.6 (≈ 17.2 µg/mL) | 0.27 | 19.1 (≈ 9.21 µg/mL) | 2490 |  | selectivity ratio (in vitro): > 83; IC50 (Plasmodium falciparum [6]): 8140 nM |
| Clc1ccc2c(NCCCNc3ccnc(Cl)n3)ccnc2c1 |  |  |  |  |  | 3.2 |  |
| C[C@H]1[C@H](OC(=O)CCC(=O)O)O[C@@H]2O[C@@]3(C)CC[C@H]4[C@H](C)CC[C@@H]1[C@@]24OO3 [ARTESUNATE] |  |  |  |  | < 5200 |  |  |
| Cc1nc(OCc2cn(CCNc3ccnc4cc(Cl)ccc34)nn2)nc(-c2ccccc2)c1C(=O)OC(C)C | 149000 | 53.1 (≈ 29.6 µg/mL) | 1.21 | 3.21 (≈ 1.79 µg/mL) | 640 |  | selectivity ratio (in vitro): 232; IC50 (Plasmodium falciparum [6]): 2000 nM |
